From the NIST ThermoML archive (doi:10.1021/je300972a)
± gives the expanded uncertainty stated by the source.

Assay: xn = mol fraction of the nth substance listed
Conditions: 101 kPa, Liquid; for viscosity: Falling or rolling sphere viscometry; for mass density: Vibrating tube method

CCCC[n+]1ccc(C)cc1.O=S(=O)([N-]S(=O)(=O)C(F)(F)F)C(F)(F)F + CCCC[n+]1ccccc1.F[B-](F)(F)F
Conditions | mass density, 293.15 K [kg/m3] | mass density, 303.15 K [kg/m3] | mass density, 313.15 K [kg/m3] | viscosity, 293.15 K [mPa·s] | viscosity, 303.15 K [mPa·s] | viscosity, 313.15 K [mPa·s] | viscosity, 323.15 K [mPa·s]
x2 = 0 | 1416.6 ± 1.7 | 1407.3 ± 1.7 | 1398.1 ± 1.7 | 70.6 ± 1.9 | 45.2 ± 1.2 | 30.6 ± 0.8 | 21.8 ± 0.6
x2 = 0.0575 | 1409.3 ± 1.7 | 1400.1 ± 1.7 | 1391 ± 1.7 | 75.3 ± 2.1 | 47.3 ± 1.2 | 31.9 ± 0.8 | 22.6 ± 0.6
x2 = 0.1136 | 1401.9 ± 1.7 | 1392.8 ± 1.7 | 1383.8 ± 1.7 | 77.8 ± 2.2 | 49.3 ± 1.3 | 33 ± 0.8 | 23.5 ± 0.6
x2 = 0.2311 | 1385.1 ± 1.7 | 1376.2 ± 1.7 | 1367.4 ± 1.7 | 88.7 ± 2.7 | 55.5 ± 1.4 | 37 ± 0.9 | 26.4 ± 0.7
x2 = 0.3515 | 1366 ± 1.7 | 1357.4 ± 1.7 | 1348.8 ± 1.7 | 101.1 ± 3.3 | 63.3 ± 1.6 | 42.3 ± 1.1 | 29.6 ± 0.8
x2 = 0.4566 | 1347.8 ± 1.7 | 1339.4 ± 1.7 | 1331.1 ± 1.7 | 115.1 ± 4.1 | 72.7 ± 2 | 47.2 ± 1.2 | 32.4 ± 0.8
x2 = 0.5692 | 1326.2 ± 1.7 | 1318.1 ± 1.7 | 1310 ± 1.7 | 135.2 ± 5.3 | 81.7 ± 2.4 | 52.1 ± 1.3 | 35.4 ± 0.9
x2 = 0.673 | 1304 ± 1.7 | 1296.1 ± 1.7 | 1288.3 ± 1.7 | 153.4 ± 6.5 | 90.6 ± 2.8 | 56.6 ± 1.4 | 38.2 ± 1
x2 = 0.7836 | 1277.5 ± 1.7 | 1270 ± 1.7 | 1262.5 ± 1.7 | 171.9 ± 7.8 | 98.9 ± 3.2 | 61.3 ± 1.6 | 41 ± 1
x2 = 0.889 | 1249.1 ± 1.7 | 1241.9 ± 1.7 | 1234.7 ± 1.7 | 195 ± 9.5 | 109.6 ± 3.8 | 66.9 ± 1.8 | 44.1 ± 1.1
x2 = 0.9535 | 1230.2 ± 1.7 | 1223.2 ± 1.7 | 1216.2 ± 1.7 | 216.1 ± 11 | 118.8 ± 4.3 | 72.5 ± 2 | 46.5 ± 1.2
